Source: US20230365559A1, “NOVEL AMINOPYRIDINES AND THEIR USE IN TREATING CANCER” (priority 2020, published 2023)
Read-outs that look alike come from different tables or passages of the source.

Tests used:
human mTOR = human mTOR (Homo sapiens, UniProt P42345); test: Inhibition of mTOR kinase activity, HotSpot assay, phosphorylation of 4EPB1
UT-SCC-54C cells [1] = test: Radiosensitisation of UT-SCC-54C HNSCC cells, clonogenic survival, oxic and anoxic (Table 18); type: cell-based, human
human PI3Kα (p110α/p85α) = human PI3Kα (p110α/p85α) (Homo sapiens, UniProt P42336); test: Inhibition of PI3Kα kinase activity, ADP-Glo Assay (Reaction Biology); type: biochemical; conditions: 10 μM ATP; mean of two replicates; Table 12; read-out: Inhibition of kinase activity (as IC50) PICK
UT-SCC-54C cells [2] = test: Radiosensitisation of UT-SCC-54C HNSCC cells, regrowth (sulforhodamine B) assay, oxic (Table 16); type: cell-based, human; conditions: for IC50: Homo sapiens, read-out: IC50; for S50: compound in combination with 3 Gy of radiation, 50% inhibition of regrowth fraction, UT-SCC-54C
human DNA-PK = human DNA-PK (Homo sapiens, UniProt P78527); test: Inhibition of DNA-PKcs kinase activity, HotSpot assay (Reaction Biology), [γ-33P]-ATP phosphorylation of peptide substrate; type: biochemical
ATM = ATM (Homo sapiens, UniProt Q13315); test: ATM Human PIKK Kinase Enzymatic ELISA/EIA Assay, KinaseProfiler (Eurofins Discovery); type: biochemical; conditions: for remaining activity at 1 µM: read-out: ATM, Percent of control at 1 μM; for IC50: KinaseProfiler, Km ATP, Table 15, read-out: Inhibition of PIKK kinase activity ATM
HAP1/PRKDC−/− cells = test: Radiosensitisation of DNA-PK null HAP1/PRKDC−/− cells, regrowth assay; type: cell-based, human; conditions: for radiosensitisation / differential growth inhibition of DNA-PK null HAP1 line: 3 Gy, HAP1/PRKDC−/−; for IC50: Homo sapiens, HAP1
HAP1 cells = test: Radiosensitisation of HAP1 wild type cells, regrowth assay; type: cell-based, human; conditions: for effect in unirradiated HAP1 cells: 0 Gy; for radiosensitisation / differential growth inhibition of HAP1 cells: 3 Gy cobalt-60 gamma irradiation relative to radiation-only; for IC50: Homo sapiens, HAP1, read-out: HAP1 wt IC50
[3] = Inhibition of kinase activity (as IC50) mTOR (nM), 10 μM ATP, mean of two replicates, Table 12
[4] = 10 μM ATP, 10 μg/ml DNA, mean of two replicates, Table 12, read-out: Inhibition of kinase activity (as IC50) DNA-PK (converted)
[5] = Inhibition of PIKK kinase activity mTOR/FRAP (nM), HotSpot assay Reaction Biology Corp., Table 15
[6] = HotSpot assay Reaction Biology Corp., Table 15, read-out: Inhibition of PIKK kinase activity DNA-PK

ATM, sequence (Q13315 whole entry): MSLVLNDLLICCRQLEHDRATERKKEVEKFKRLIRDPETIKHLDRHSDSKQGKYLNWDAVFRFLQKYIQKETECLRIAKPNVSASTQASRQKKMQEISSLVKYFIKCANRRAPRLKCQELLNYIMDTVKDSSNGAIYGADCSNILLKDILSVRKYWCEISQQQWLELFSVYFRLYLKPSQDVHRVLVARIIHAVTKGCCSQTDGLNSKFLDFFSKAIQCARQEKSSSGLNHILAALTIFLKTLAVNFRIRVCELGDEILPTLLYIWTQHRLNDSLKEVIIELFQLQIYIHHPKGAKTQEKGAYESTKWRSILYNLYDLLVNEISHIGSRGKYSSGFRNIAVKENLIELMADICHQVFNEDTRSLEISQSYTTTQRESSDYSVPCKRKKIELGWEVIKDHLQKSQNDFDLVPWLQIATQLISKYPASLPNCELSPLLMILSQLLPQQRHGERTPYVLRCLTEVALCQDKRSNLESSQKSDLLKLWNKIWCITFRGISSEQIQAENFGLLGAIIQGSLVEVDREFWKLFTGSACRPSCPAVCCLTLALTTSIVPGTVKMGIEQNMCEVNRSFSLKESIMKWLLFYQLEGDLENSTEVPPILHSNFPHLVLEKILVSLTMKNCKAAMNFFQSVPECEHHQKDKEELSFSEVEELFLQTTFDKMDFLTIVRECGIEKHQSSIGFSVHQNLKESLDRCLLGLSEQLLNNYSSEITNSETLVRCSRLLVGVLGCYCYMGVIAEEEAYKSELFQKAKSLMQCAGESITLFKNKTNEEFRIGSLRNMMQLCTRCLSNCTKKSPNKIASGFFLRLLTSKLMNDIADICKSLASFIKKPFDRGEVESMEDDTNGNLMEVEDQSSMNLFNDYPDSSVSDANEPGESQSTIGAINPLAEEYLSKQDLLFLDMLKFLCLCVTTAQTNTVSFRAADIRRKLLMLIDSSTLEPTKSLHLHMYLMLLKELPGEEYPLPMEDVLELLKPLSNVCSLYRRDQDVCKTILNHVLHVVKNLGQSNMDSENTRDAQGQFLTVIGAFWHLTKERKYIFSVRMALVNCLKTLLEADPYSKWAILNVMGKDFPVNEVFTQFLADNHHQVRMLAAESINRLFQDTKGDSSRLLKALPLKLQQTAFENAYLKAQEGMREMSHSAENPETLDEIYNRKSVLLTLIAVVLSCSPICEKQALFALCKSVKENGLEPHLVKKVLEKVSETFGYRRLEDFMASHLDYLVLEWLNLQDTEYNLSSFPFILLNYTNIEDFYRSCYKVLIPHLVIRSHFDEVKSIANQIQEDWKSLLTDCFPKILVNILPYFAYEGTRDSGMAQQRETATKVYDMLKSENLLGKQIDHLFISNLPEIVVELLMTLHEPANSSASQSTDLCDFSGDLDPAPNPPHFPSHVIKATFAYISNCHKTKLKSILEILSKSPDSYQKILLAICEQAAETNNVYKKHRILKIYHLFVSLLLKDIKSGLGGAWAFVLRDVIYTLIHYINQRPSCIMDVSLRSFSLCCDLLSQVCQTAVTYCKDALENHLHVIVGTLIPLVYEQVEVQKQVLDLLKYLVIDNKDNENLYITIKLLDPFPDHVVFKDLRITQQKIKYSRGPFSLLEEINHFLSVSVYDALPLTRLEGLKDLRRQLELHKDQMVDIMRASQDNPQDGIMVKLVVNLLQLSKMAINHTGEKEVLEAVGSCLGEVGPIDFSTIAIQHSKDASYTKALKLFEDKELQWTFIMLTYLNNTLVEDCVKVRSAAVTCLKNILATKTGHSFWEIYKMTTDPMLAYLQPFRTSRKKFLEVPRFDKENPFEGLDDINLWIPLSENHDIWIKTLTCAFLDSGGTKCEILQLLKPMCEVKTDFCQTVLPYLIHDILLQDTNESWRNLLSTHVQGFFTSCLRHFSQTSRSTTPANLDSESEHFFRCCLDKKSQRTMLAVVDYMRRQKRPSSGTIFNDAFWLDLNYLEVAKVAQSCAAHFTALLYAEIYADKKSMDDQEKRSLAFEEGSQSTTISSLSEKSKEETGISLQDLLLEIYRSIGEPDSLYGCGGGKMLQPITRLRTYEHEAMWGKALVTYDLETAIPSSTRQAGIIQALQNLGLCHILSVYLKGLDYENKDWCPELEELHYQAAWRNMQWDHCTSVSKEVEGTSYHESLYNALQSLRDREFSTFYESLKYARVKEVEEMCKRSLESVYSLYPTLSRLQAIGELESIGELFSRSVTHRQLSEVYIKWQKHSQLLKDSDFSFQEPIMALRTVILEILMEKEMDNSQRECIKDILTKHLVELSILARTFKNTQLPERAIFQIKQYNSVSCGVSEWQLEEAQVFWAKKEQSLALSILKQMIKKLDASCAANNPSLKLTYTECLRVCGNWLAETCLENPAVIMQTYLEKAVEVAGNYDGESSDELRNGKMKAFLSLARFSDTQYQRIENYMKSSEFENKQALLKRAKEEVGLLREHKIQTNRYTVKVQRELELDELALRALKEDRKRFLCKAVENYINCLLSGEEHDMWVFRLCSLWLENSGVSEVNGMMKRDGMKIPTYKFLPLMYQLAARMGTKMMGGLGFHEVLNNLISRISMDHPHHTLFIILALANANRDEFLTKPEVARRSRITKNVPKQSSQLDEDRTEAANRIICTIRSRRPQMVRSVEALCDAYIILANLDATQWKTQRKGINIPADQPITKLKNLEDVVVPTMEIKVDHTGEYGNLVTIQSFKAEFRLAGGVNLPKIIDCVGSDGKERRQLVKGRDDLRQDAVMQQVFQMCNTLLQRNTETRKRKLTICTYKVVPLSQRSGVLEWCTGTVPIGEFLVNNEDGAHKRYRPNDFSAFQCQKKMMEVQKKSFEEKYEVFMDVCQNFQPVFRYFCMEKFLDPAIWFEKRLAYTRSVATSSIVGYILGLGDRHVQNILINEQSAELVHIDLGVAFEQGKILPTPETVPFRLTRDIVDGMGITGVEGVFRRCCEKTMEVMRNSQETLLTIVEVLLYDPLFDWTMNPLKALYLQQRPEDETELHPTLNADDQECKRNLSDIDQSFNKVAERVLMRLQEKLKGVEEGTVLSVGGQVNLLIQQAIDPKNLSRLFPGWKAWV
human PI3Kα (p110α/p85α), sequence (P42336 whole entry): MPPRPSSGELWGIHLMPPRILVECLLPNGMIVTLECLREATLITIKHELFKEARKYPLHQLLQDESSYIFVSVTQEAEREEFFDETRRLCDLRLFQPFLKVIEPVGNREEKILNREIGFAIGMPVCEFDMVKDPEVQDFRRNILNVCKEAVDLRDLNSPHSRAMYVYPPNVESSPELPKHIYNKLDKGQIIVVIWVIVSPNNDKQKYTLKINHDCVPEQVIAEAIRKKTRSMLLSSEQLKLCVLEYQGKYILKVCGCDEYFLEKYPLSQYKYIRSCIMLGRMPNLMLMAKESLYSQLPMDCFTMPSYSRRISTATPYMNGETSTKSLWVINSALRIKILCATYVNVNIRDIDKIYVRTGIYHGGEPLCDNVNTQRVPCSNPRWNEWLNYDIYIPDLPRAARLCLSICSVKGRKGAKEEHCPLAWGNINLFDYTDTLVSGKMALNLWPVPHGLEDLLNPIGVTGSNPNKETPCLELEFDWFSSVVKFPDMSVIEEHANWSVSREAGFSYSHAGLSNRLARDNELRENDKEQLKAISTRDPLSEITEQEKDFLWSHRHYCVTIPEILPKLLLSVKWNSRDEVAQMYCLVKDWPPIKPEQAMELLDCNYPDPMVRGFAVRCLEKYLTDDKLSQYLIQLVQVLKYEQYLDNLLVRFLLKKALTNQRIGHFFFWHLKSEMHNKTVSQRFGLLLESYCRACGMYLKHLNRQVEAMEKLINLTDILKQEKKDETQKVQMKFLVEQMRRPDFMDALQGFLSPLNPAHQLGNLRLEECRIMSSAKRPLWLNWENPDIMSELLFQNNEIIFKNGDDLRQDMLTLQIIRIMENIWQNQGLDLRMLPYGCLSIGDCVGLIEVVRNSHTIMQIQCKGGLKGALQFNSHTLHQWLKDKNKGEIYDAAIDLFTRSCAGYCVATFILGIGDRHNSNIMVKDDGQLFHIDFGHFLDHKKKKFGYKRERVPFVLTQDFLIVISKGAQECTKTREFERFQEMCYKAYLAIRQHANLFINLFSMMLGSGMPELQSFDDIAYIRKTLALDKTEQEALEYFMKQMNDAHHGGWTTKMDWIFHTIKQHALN
human PI3Kα (p110α/p85α), sequence (P27986 whole entry partner): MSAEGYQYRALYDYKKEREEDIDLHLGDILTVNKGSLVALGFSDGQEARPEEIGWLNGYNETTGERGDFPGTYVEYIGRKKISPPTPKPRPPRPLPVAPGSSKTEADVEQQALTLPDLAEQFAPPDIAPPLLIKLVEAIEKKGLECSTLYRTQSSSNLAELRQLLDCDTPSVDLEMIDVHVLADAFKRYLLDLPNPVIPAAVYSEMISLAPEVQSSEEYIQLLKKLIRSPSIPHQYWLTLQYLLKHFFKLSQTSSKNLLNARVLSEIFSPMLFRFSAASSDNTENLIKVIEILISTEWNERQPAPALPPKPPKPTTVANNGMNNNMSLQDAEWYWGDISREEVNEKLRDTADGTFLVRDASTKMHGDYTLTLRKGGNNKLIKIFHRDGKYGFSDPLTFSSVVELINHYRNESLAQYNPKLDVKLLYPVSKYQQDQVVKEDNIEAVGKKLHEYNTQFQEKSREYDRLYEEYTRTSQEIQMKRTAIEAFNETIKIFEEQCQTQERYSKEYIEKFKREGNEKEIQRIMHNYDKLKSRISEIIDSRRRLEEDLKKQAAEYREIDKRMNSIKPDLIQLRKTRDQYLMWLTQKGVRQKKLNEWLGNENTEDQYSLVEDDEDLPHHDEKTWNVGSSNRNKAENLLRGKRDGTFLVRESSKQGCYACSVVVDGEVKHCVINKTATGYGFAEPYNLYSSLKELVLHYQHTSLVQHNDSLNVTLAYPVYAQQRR

| Structure (SMILES) | IC50 (human mTOR; [3]) | IC50 (human PI3Kα (p110α/p85α)) | IC50 (UT-SCC-54C cells [2]) | S50 (UT-SCC-54C cells [2]; oxic) | IC50 (human DNA-PK; [4]) | remaining activity at 1 µM (ATM) | IC50 (human DNA-PK; [6]) | other results |
| --- | --- | --- | --- | --- | --- | --- | --- | --- |
| COc1ccc(N(C(=O)OCc2ncc([N+](=O)[O-])n2C)c2cc3c(cn2)n(C)c(=O)n3C2CCOCC2)c(C)c1 [Compound 251, (1-Methyl-5-nitro-1H-imidazol-2-yl)methyl (4-methoxy-2-methylphenyl)(3-methyl-2-oxo-1-(tetrahydro-2H-pyran-4-yl)-2,3-dihydro-1H-imidazo[4,5-c]pyridin-6-yl)carbamate] | > 100000 nM | > 100 µM | > 10 µM | >10 µM | 1.26 µM |  |  | D1 (radiation dose for 1% surviving fraction) (UT-SCC-54C cells [1]; 0% O2, compound conc 1 μM): 19.50 Gy; D10 (radiation dose for 10% surviving fraction) (UT-SCC-54C cells [1]; 0% O2, compound conc 1 μM): 13.17 Gy; SER1 (sensitiser enhancement ratio at 1% surviving fraction) (UT-SCC-54C cells [1]; 0% O2, compound conc 1 μM): 1.10; SER10 (sensitiser enhancement ratio at 10% surviving fraction) (UT-SCC-54C cells [1]; 0% O2, compound conc 1 μM): 1.06; Plating efficiency drug/no drug (UT-SCC-54C cells [1]; 0% O2, compound conc 1 μM, no radiation): 1.03; sensitisation of UT-SCC-54C cells selectively under anoxia (UT-SCC-54C cells [1]; oxic vs anoxic, clonogenic survival, FIGS. 9 and 10): provide sensitisation of UT-SCC-54C cells selectively under anoxia; radiosensitisation / differential growth inhibition of UT-SCC-54C cells (UT-SCC-54C cells [2]; oxic, 0 or 3 Gy, regrowth assay): did not display any differential growth inhibition |
| CCOC(=O)c1cnc2cc(C)c(Nc3cc4c(cn3)n(C)c(=O)n4C3CCOCC3)cn12 [Compound 129, Ethyl 7-Methyl-6-((3-methyl-2-oxo-1-(tetrahydro-2H-pyran-4-yl)-2,3-dihydro-1H-imidazo[4,5-c]pyridin-6-yl)amino)imidazo[1,2-a]pyridine-3-carboxylate] | 19000 nM | 0.314 µM | > 10 µM | 0.09 µM | 0.00257 µM | 79% | 0.00257 µM | IC50 (human mTOR; [5]): 18900 nM; radiosensitisation / differential growth inhibition of DNA-PK null HAP1 line (HAP1/PRKDC−/− cells): did not radiosensitise; IC50 (HAP1/PRKDC−/− cells): > 10 µM; effect in unirradiated HAP1 cells (HAP1 cells): little effect; radiosensitisation / differential growth inhibition of HAP1 cells (HAP1 cells): concentration-dependent radiosensitisation; IC50 (HAP1 cells): > 10 µM |
| Cn1c(=O)n(C2CCCC2)c2cc(Nc3ccc4ncccc4c3)ncc21 [Compound 63, 1-Cyclopentyl-3-methyl-6-(quinolin-6-ylamino)-1,3-dihydro-2H-imidazo[4,5-c]pyridin-2-one] |  |  |  |  |  |  |  | IC50 (ATM): 0.719 µM |
| COc1cc(C)c(Nc2cc3c(cn2)n(C)c(=O)n3C2CCOCC2)cn1 [Compound 126, 6-((6-Methoxy-4-methylpyridin-3-yl)amino)-3-methyl-1-(tetrahydro-2H-pyran-4-yl)-1,3-dihydro-2H-imidazo[4,5-c]pyridin-2-one] | 12600 nM | 4.23 µM | > 10 µM | 0.32 µM | 0.00906 µM |  |  | radiosensitisation / differential growth inhibition of DNA-PK null HAP1 line (HAP1/PRKDC−/− cells): did not radiosensitise; IC50 (HAP1/PRKDC−/− cells): > 10 µM; effect in unirradiated HAP1 cells (HAP1 cells): little effect; radiosensitisation / differential growth inhibition of HAP1 cells (HAP1 cells): concentration-dependent radiosensitisation; IC50 (HAP1 cells): > 10 µM |
| COc1ccc(Nc2cc3c(cn2)n(C)c(=O)n3C2CCOCC2)cc1 [Compound 215, 6-((4-Methoxyphenyl)amino)-3-methyl-1-(tetrahydro-2H-pyran-4-yl)-1,3-dihydro-2H-imidazo[4,5-c]pyridin-2-one] | 12300 nM | 12.5 µM | > 10 µM | 7.5 µM | 0.051 µM | 90% | 0.051 µM | IC50 (human mTOR; [5]): 12300 nM |
| Cn1c(=O)n(C2CCCC2)c2cc(Nc3ccccn3)ncc21 [Compound 73, 1-Cyclopentyl-3-methyl-6-(pyridin-2-ylamino)-1,3-dihydro-2H-imidazo[4,5-c]pyridin-2-one] |  |  |  |  |  |  |  | IC50 (ATM): 0.275 µM |
| Cc1cc(Nc2cc3c(cn2)n(C)c(=O)n3C2CCCC2)c2ccccc2n1 [Compound 67, 1-Cyclopentyl-3-methyl-6-((2-methylquinolin-4-yl)amino)-1,3-dihydro-2H-imidazo[4,5-c]pyridin-2-one] |  |  |  |  |  | 88% |  |  |
| Cn1c(=O)n(-c2ccc(C(C)(C)C#N)cc2)c2cc(Nc3ccc4ncccc4c3)ncc21 [Compound 213, 2-Methyl-2-(4-(3-methyl-2-oxo-6-(quinolin-6-ylamino)-2,3-dihydro-1H-imidazo[4,5-c]pyridin-1-yl)phenyl)propanenitrile] |  | 1.73 µM | > 10 µM | 2.22 µM | 0.00123 µM | 68% | 0.00123 µM |  |
